Here are results for five molecules from US11883526B2 (priority 2019, dated 2024).

Read-outs that look alike come from different tables or passages of the source. Marks after values point to notes of the source that are not given here.

The subject of one data set is MDD/TRD subjects. The settings on record: quetiapine 52-week safety study; Symbyax over 76 weeks; cited from earlier work.
The text on data set [1]:
This example provides an LC-MS/MS method for the determination of ketamine and norketamine in sodium heparin human plasma using ketamine-d4 and norketamine-d4 as the respective internal standards (IS).

Data set [2] in a line: Pharmacokinetics of intranasal esketamine in healthy subjects (Example 9). Conditions: for AUClast / AUC∞ / t1/2 / Cmax / Metabolite/Parent Ratio AUClast / Metabolite/Parent Ratio Cmax / Metabolite/Parent Ratio AUC∞: mean; for tmax: median; for Metabolite/Parent Ratio AUClast / Metabolite/Parent Ratio Cmax / Metabolite/Parent Ratio AUC∞: noresketamine/esketamine. The method, then:
This was an open-label, single-center study. The subjects were healthy Caucasian men and women, 20 to 55 years of age, inclusive. […] The solution consisted of:
Blood samples (4 mL each) for determination of esketamine and noresketamine plasma concentrations were collected into the appropriate collection tube (e.g., Vacutainer®) at timepoints 0.00, 0.12, 0.20, 0.37, 0.53, 0.67, 0.83, 1.00, 1.25, 1.50, 2.00, 3.00, 4.00, 6.00, 9.00, 12.00, 18.00, and 24.00 h. The total amount of blood to be drawn for clinical laboratory tests and PK evaluations is approximately 327 mL.
Plasma samples were analyzed for esketamine and noresketamine concentrations using the validated, specific and sensitive liquid chromatography coupled to tandem mass spectrometry (LC-MS/MS) achiral method of Example 8.
Serial PK blood samples (4 mL each) were collected for a 24-hour period from each subject (Periods 1, 2, and 3). […] Statistical Methods 1.6.4.1. Sample Size
The following key parameters of esketamine and noresketamine in plasma were calculated using noncompartmental methods and actual sampling times: Cmax, tmax, AUClast, AUC∞, t1/2,λ, and λz.

Data set [3] concerns female Sprague-Dawley rats. Nature of the data set: Single dose neurotoxicity study: mortality, clinical observations, body weight. In kind it is in vivo, rat. Here is the method:
The injection volume was 5 mL/kg.
Body weight and body weight gain were measured daily.

[4] abbreviates: noresketamine after esketamine 28 mg.
Where [5] appears, read: noresketamine after esketamine 56 mg.
The mark [6] stands for this setting: noresketamine after esketamine 56 mg, n = 13.
Setting [7] is: noresketamine after esketamine 84 mg.
[8] abbreviates: noresketamine after esketamine 84 mg, n = 12.
Where [9] appears, read: single dose study, (+)MK-801 maleate 1 mg/kg subcutaneous.

In the case of `OCCOCCN1CCN(C2=Nc3ccccc3Sc3ccccc32)CC1` [quetiapine], in the data set on MDD/TRD subjects, the “rate of discontinuation due to adverse events in long-term study in MDD/TRD subjects” value is recorded as 23.7%.
With `NC1(c2ccccc2Cl)CCCCC1=O` (centres unmarked) [Norketamine], the “QC sample freeze/thaw stability” value in data set [1] (freeze (−20° C.)/thaw (ice-water bath)) is reported as 3 freeze (−20° C.)/thaw (ice-water bath) cycles; in data set [1] (freeze (−20° C.)/thaw (room temperature)), 3 freeze (−20° C.)/thaw (room temperature) cycles. Moreover, the “QC sample long-term storage stability” value in data set [1] (human plasma QC sample at −20° C.) is 1552 days at −20 °C. Besides, in data set [1] (human plasma QC sample, room temperature), the “QC sample bench-top stability” value came out at 68.5 hours at room temp. Also, the “Stock solution stability (spike solutions)” value in data set [1] (ketamine/norketamine spike solutions at −20° C.) is 610 days at −20 °C for ketamine/norketamine spike solutions. The molecule further came in with a Processed sample stability in data set [1] (room temperature) of 146.5 hours at room temperature. In data set [1] (room temperature and ice-water bath (0-4° C.)), the “Whole Blood Stability” value is 120 minutes at room temperature and in an ice-water bath (0-4° C.). The Stock solution stability came to 6 h in data set [1] (stock solutions at room temperature under white light) and 15100 h in data set [1] (stock solutions at −20° C.).
What is called Cmax is the highest concentration seen after dosing. For the molecule `N[C@]1(c2ccccc2Cl)CCCCC1=O` [noresketamine], the “mean ratio of noresketamine to esketamine, AUClast” value in data set [2] (across 28, 56 and 84 mg) is reported as 3.62 to 4.32. Moreover, the “mean ratio of noresketamine to esketamine, AUC∞” value in data set [2] (across 28, 56 and 84 mg) lay in the range of 3.80 to 4.46. In addition, the “mean ratio of noresketamine to esketamine, Cmax” value in data set [2] (across 28, 56 and 84 mg) fell in the range of 1.96 to 2.55. In data set [2] (across 28, 56 and 84 mg), the “mean t1/2” value was in the range of 7.48 to 7.74 h. Further, in data set [2] (across the 3 treatment groups), the “variability of AUC (AUClast and AUC∞)” value is listed as 17.0% to 21.3. The “variability of Cmax (percent coefficient of variation)” value in data set [2] (across the 3 treatment groups) is on record as 25.8% to 33.7. For the same molecule, the median tmax in data set [2] (healthy subjects, across 28, 56 and 84 mg intranasal regimens) lay in the range of 1.25 to 1.5 h. Further, the results for the AUClast in data set [2] (setting [4]), in data set [2] (setting [5]) and in data set [2] (setting [7]) were 454 ng·h/mL, 851 ng·h/mL and 1287 ng·h/mL, respectively. In addition, the results for the “AUC∞” value in data set [2] (setting [4]), in data set [2] (setting [6]) and in data set [2] (setting [8]) were 508 ng·h/mL, 924^c h*ng/mL and 1392^b h*ng/mL, respectively. In addition, the values for the t1/2 in data set [2] (setting [4]), in data set [2] (setting [6]) and in data set [2] (setting [8]) were 7.74 h, 7.71^c h and 7.48^b h, respectively. The tmax is reported as 1.25 h in data set [2] (setting [4]), 1.50 h in data set [2] (setting [5]) and 1.50 h in data set [2] (setting [7]). The Cmax is on record as 92.8 ng/mL in data set [2] (noresketamine in plasma after intranasal esketamine 28 mg (Treatment A)), 154 ng/mL in data set [2] (noresketamine in plasma after intranasal esketamine 56 mg (Treatment B)) and 241 ng/mL in data set [2] (noresketamine in plasma after intranasal esketamine 84 mg (Treatment C)). Further, the “Metabolite/Parent Ratio AUClast” value in data set [2] (esketamine 28 mg) is given as 3.62; in data set [2] (esketamine 56 mg) it was 4.07; in data set [2] (esketamine 84 mg), 4.32. Moreover, the “Metabolite/Parent Ratio Cmax” value in data set [2] (esketamine 28 mg) is reported as 1.96; in data set [2] (esketamine 56 mg) it was 2.28; in data set [2] (esketamine 84 mg), 2.55. The “Metabolite/Parent Ratio AUC∞” value in data set [2] (esketamine 28 mg, n = 12) is 3.80^b; in data set [2] (esketamine 56 mg, n = 12) it was 4.22^b; in data set [2] (esketamine 84 mg, n = 11), 4.46^d.
For `C[C@]12N[C@H](Cc3ccccc31)c1ccccc12.O=C(O)/C=C\C(=O)O` [Positive control], in data set [3] (setting [9]), the “Clinical observation incidence: Ataxia” value was 27/30 ***, the “Clinical observation incidence: Catalepsy” value is 15/30 ***, the “Clinical observation incidence: Chromodacryorrhea” value is 24/30 *** and the “Clinical observation incidence: Decreased general activity” value is on record as 30/30 ***. Moreover, in data set [3] (setting [9]), the “Clinical observation incidence: Decubitus” value is reported as 30/30 ***, the “Clinical observation incidence: Increased general activity” value is given as 4/30, the “Clinical observation incidence: Narrowed palpebral fissure” value is 4/30 and the “Clinical observation incidence: Piloerection” value was 8/30**. In data set [3] (setting [9]), the “Clinical observation incidence: Salivation (out of normal)” value is given as 17/30 *** and the “Clinical observation incidence: bradypnoea” value is 12/30 ***.
With (+)MK-801 maleate [reference compound], in data set [3] (1 mg/kg sc, first 48 hours after treatment), the body weight loss is given as 13-14%. Also, the mortality result in data set [3] (single sc dose 1 mg/kg, single and repeated dose studies) was “No mortality”.
